What was measured:
[1] = Saturation concentration in olive oil:ethanol (9:1); type: physicochemical; conditions: 25° C.
Procedure: (§1) Each of said mixtures was continuously and gently stirred for 10 minutes at ambient temperature (25° C.) and then maintained at rest for 60 minutes. The saturation concentration was considered to be that which was immediately less than a concentration where deposition was observed, but in which no deposition of the active ingredient was observed.

[2] = Saturation concentration in different oils (soy, sunflower, rapeseed); type: physicochemical; conditions: 25° C.
Procedure: as §1

[3] = system: TGFβ2; assay: Immunohistochemistry of TGFβ2 in respiratory tract tissue of sodium hypochlorite aerosol-treated rabbits; type: in vivo, New Zealand albino rabbits
Source text: It is known that the factors TGF-α, TGF-β 1, TGF-β 2, TGF-β 3, SPARC, MMP-3; MMP-7, MMP-9, MMP-11, MMP-13 and MMP-14, TGF-β, NF-kB, EGF, MMP-9, VEGF and TNF-α which are produced by lung cells (pneumocytes, fibroblasts and vascular endothelial cells) and inflammatory cells (macrophages, lymphocytes and polymorphonuclear leukocytes) are involved in the pathophysiology and development of said respiratory tract diseases. […] Herein, 27 New Zealand albino rabbits (New Zealand White Rabbit) with an initial average weight about 3 kg were used in this example. All subjects were administered an aerosol of a solution consisting of a mixture of water and sodium hypochlorite (35 g sodium hypochlorite per liter of water) at a rate of 5 mL of said solution by inhalation three times a day for 7 days (days 1 to 7 of experimentation). Subsequently, from days 3 to 7, a group of 3 rabbits (Group 1) was administered an oral dose of 10 mg/kg body weight per day, another group of 3 rabbits (Group 2) was administered an oral dose of 40 mg/kg body weight per day, a third group (Group 3) was administered an oral dose of 80 mg/kg body weight per day and a fourth group (Group 4) was administered an oral dose of 100 mg/kg body weight per day. […] This mixture was administered as an aerosol by inhalation, also from days 3 to 7, to a group of 3 rabbits (group 5) at a dose of 0.05 mg/kg body weight per day, to another group of three rabbits (Group 6) at a dose of 0.1 mg/kg body weight per day, to another group of three rabbits (Group 7) at a dose of 0.2 mg/kg body weight per day and to another group of three rabbits (Group 8) at a dose of 0.4 mg/kg body weight per day. A placebo consisting only of olive oil was administered from days 3 to 7 to a control group of 3 rabbits (placebo group). In parallel, 3 rabbits were kept under identical conditions but were not administered any treatment nor the aforementioned sodium hypochlorite solution (control group). […] On day 7 of the experiment all animals were euthanized and necropsied. […] Samples were taken at the peripheral level of the lung parenchyma, just below the pleural surface. Tissue samples were also taken from the nasal cavity, pharynx, larynx and bronchi. Immunohistochemistry studies were performed for all samples to evaluate the levels of the markers TGF-α, TGF-β 1, TGF-β 2, TGF-β 3 SPARC, MMP-3; MMP-7, MMP-9, MMP-11, MMP-14, TGF-β, TNF-α and VEGF. In said immunohistochemistry studies, a sample of each sample was dehydrated by treatment with increasing concentrations of ethanol and finally xylene. Subsequently said dried samples were embedded in paraffin, thus creating a block. Said paraffin blocks were cut on a microtome to a thickness of 5 μm, and the resulting sections (slices) were placed on slides suitable for conducting immunohistochemistry techniques. Subsequently, the sections were deparaffinised by immersion in xylene and then rehydrated through immersion in a series of solutions containing decreasing concentrations of ethanol and, finally, water. […] The samples were then allowed to cool to room temperature over 10 minutes. Endogenous peroxidase activity was blocked by treatment with 3% hydrogen peroxide over 30 min at room temperature. […] In order to verify the expression of NK1 receptors, the cell samples were incubated in the presence of anti-NK1 antibodies ([…], Sigma-Aldrich) diluted 1:1000 at 4° C. overnight. After this time they were washed in 0.05M Tris buffer at room temperature. Subsequently, Envision System-HRP (Dako) reagents were added for 30 min at room temperature. Once this time had expired, the samples were again washed with 0.05 M Tris buffer, and immunoreactivity was visualized by light microscopy with a chromogenic solution with 3,3'-diaminobenzidine (DAB+; Dako, USA). In order to differentiate the cell nuclei, these were lightly stained with haematoxylin. Samples that were not incubated with the primary antibody, but wherein this was replaced by a non-immune serum were used as negative controls. […]

[4] = molecular target: T1, CYP3A4 (Homo sapiens, UniProt P08684); conditions: human hepatic microsomes; cited from earlier work
T1 construct: In vitro studies in which human hepatic microsomes were used; from tissue; host or cells: human hepatic (liver) microsomes
T1 sequence (P08684 whole entry): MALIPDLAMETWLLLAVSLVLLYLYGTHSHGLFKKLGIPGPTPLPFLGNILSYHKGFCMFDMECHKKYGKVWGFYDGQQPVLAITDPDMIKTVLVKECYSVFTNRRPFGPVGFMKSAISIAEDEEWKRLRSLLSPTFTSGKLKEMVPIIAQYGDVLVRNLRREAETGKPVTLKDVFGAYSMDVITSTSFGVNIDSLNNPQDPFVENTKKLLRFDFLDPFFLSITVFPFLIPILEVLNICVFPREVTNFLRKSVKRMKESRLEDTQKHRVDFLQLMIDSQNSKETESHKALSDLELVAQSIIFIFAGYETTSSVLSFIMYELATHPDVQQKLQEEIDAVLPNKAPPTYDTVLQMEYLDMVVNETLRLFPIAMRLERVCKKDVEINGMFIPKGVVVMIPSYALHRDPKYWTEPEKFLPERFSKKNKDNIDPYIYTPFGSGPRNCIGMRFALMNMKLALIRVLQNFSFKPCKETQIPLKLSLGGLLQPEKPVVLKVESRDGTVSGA

C[C@@H](OC1OCCN(Cc2nc(=O)[nH][nH]2)C1c1ccc(F)cc1)c1cc(C(F)(F)F)cc(C(F)(F)F)c1 (stereo in doubt) [Aprepitant, 5-([(2R,3S)-2-((R)-1-[3,5-bis(trifluoromethyl)phenyl]ethoxy)-3-(4-fluorophenyl)morpholino]methyl)-1H-1,2,4-triazol-3(2H)-one]
Saturation concentration [1]: 80 nM | Saturation concentration ([2]; Rapeseed oil): 80 nM | Saturation concentration ([2]; Soy oil): 60 nM | Saturation concentration ([2]; Sunflower oil): 70 nM | Percent increase in TGFβ2 with respect to the control group ([3]; bronchial tissue, Group 1, oral 10 mg/kg per day): 1,342.12% | Percent increase in TGFβ2 with respect to the control group ([3]; bronchial tissue, Group 2, oral 40 mg/kg per day): 1,008.32% | Percent increase in TGFβ2 with respect to the control group ([3]; bronchial tissue, Group 3, oral 80 mg/kg per day): 878.34% | Percent increase in TGFβ2 with respect to the control group ([3]; bronchial tissue, Group 4, oral 100 mg/kg per day): 457.45% | % Med G5/C: percent increase in marker TGFβ2 with respect to the control group ([3]; bronchial tissue, Group 5): 1,209.34% | % Med G6/C: percent increase in marker TGFβ2 with respect to the control group ([3]; bronchial tissue, Group 6): 878.45% | % Med G7/C: percent increase in marker TGFβ2 with respect to the control group ([3]; bronchial tissue, Group 7): 328.45% | % Med G8/C: percent increase in marker TGFβ2 with respect to the control group ([3]; bronchial tissue, Group 8): 126.45% | Percent increase in TGFβ2 with respect to the control group ([3]; laryngeal tissue, Group 1, oral 10 mg/kg per day): 1,789.56% | Percent increase in TGFβ2 with respect to the control group ([3]; laryngeal tissue, Group 2, oral 40 mg/kg per day): 1,398.89% | Percent increase in TGFβ2 with respect to the control group ([3]; laryngeal tissue, Group 3, oral 80 mg/kg per day): 989.89% | Percent increase in TGFβ2 with respect to the control group ([3]; laryngeal tissue, Group 4, oral 100 mg/kg per day): 816.89% | Percent increase in TGFβ2 with respect to the control group ([3]; laryngeal tissue, Group 5, inhalation 0.05 mg/kg per day): 1,506.89% | Percent increase in TGFβ2 with respect to the control group ([3]; laryngeal tissue, Group 6, inhalation 0.1 mg/kg per day): 996.89% | Percent increase in TGFβ2 with respect to the control group ([3]; laryngeal tissue, Group 7, inhalation 0.2 mg/kg per day): 560.38% | Percent increase in TGFβ2 with respect to the control group ([3]; laryngeal tissue, Group 8, inhalation 0.4 mg/kg per day): 120.23% | Percent increase in TGFβ2 with respect to the control group ([3]; lung tissue, Group 1, oral 10 mg/kg per day): 775.23% | Percent increase in TGFβ2 with respect to the control group ([3]; lung tissue, Group 2, oral 40 mg/kg per day): 582.05% | Percent increase in TGFβ2 with respect to the control group ([3]; lung tissue, Group 3, oral 80 mg/kg per day): 475.25% | Percent increase in TGFβ2 with respect to the control group ([3]; lung tissue, Group 4, oral 100 mg/kg per day): 438.55% | Percent increase in TGFβ2 with respect to the control group ([3]; lung tissue, Group 5, inhalation 0.05 mg/kg per day): 797.78% | Percent increase in TGFβ2 with respect to the control group ([3]; lung tissue, Group 6, inhalation 0.1 mg/kg per day): 338.44% | Percent increase in TGFβ2 with respect to the control group ([3]; lung tissue, Group 7, inhalation 0.2 mg/kg per day): 198.92% | Percent increase in TGFβ2 with respect to the control group ([3]; lung tissue, Group 8, inhalation 0.4 mg/kg per day): 125.88% | Percent increase in TGFβ2 with respect to the control group ([3]; nasal cavity tissue, Group 1, oral 10 mg/kg per day): 1,838.85% | Percent increase in TGFβ2 with respect to the control group ([3]; nasal cavity tissue, Group 2, oral 40 mg/kg per day): 1,469.70% | Percent increase in TGFβ2 with respect to the control group ([3]; nasal cavity tissue, Group 3, oral 80 mg/kg per day): 1,290.84% | Percent increase in TGFβ2 with respect to the control group ([3]; nasal cavity tissue, Group 4, oral 100 mg/kg per day): 1,151.85% | Percent increase in TGFβ2 with respect to the control group ([3]; nasal cavity tissue, Group 5, inhalation 0.05 mg/kg per day): 1,451.21% | Percent increase in TGFβ2 with respect to the control group ([3]; nasal cavity tissue, Group 6, inhalation 0.1 mg/kg per day): 825.63% | Percent increase in TGFβ2 with respect to the control group ([3]; nasal cavity tissue, Group 7, inhalation 0.2 mg/kg per day): 252.52% | Percent increase in TGFβ2 with respect to the control group ([3]; nasal cavity tissue, Group 8, inhalation 0.4 mg/kg per day): 136.09% | Percent increase in TGFβ2 with respect to the control group ([3]; pharyngeal tissue, Group 1, oral 10 mg/kg per day): 1,575.67% | Percent increase in TGFβ2 with respect to the control group ([3]; pharyngeal tissue, Group 2, oral 40 mg/kg per day): 1,235.45% | Percent increase in TGFβ2 with respect to the control group ([3]; pharyngeal tissue, Group 3, oral 80 mg/kg per day): 980.65% | Percent increase in TGFβ2 with respect to the control group ([3]; pharyngeal tissue, Group 4, oral 100 mg/kg per day): 780.54% | Percent increase in TGFβ2 with respect to the control group ([3]; pharyngeal tissue, Group 5, inhalation 0.05 mg/kg per day): 1,202.46% | Percent increase in TGFβ2 with respect to the control group ([3]; pharyngeal tissue, Group 6, inhalation 0.1 mg/kg per day): 725.63% | Percent increase in TGFβ2 with respect to the control group ([3]; pharyngeal tissue, Group 7, inhalation 0.2 mg/kg per day): 252.52% | Percent increase in TGFβ2 with respect to the control group ([3]; pharyngeal tissue, Group 8, inhalation 0.4 mg/kg per day): 136.09% | metabolising enzyme [4]: principally metabolized by CYP3A4

— US20170290774A1, “NEUROKININ-1 RECEPTOR ANTAGONIST COMPOSITION FOR TREATMENT OF DISEASES AND CONDITIONS OF THE RESPIRATORY TRACT” (PLUS VITECH, S.L., priority 2014, published 2017)
